Reference: article PMC12391994, “Synthesis of a fac-Tricarbonylrhenium(I) Complex with Pyrithione, Its Physicochemical Characterization, and Assessment of Biological Effects” (ACS Omega, 2025)
Where two headings read alike, the source gives them in different places.

Key:
[1] = target: T1, cathepsin B (endopeptidase activity) (Homo sapiens, UniProt P07858); experiment: Relative inhibition of cathepsin B endopeptidase activity; assay type: biochemical; settings: for relative inhibition cathepsin B endopeptidase: 50 μM, substrate Z-Arg-Arg-AMC, pH 6.0
T1 construct: made in house; host or cells: E. coli
Source text: (§1) Relative inhibition is expressed as a percentage of the decrease in reaction velocity in the presence of an inhibitor, in comparison to the reaction velocity in the absence of an inhibitor. For that purpose, the specific fluorogenic substrates Z-Arg-Arg-7-amido-4-methylcoumarin (Z-Arg-Arg-AMC) and 2-aminobenzoyl (Abz)-Gly-Ile-Val-Arg-Ala-Lys-(Dnp)-OH were used for cathepsin B endopeptidase and exopeptidase activities, respectively, and Z-Phe-Arg-AMC was used for cathepsin L and V activities.
(§2) Human recombinant cathepsin B was expressed in E. coli, recombinant cathepsin V was expressed in Pichia pastoris, and human recombinant cathepsin L was expressed in E. coli, as reported. − For the determination of cathepsin B endopeptidase and exopeptidase activities, 100 mM phosphate buffer (pH 6.0) and 60 mM acetate buffer (pH 5.0) were used, respectively, and for the determination of cathepsin V and L activities, 100 mM acetate buffer (pH 5.5) was used. All buffers contained 0.1% PEG 8000 (Sigma-Aldrich, St. Louis, MO), 5 mM cysteine, and 1.5 mM EDTA. Prior to the assay, the enzymes were activated in the assay buffer for 5 min at 37 °C.
(§3) To determine the effect of inhibitors on enzyme activity, the following substrates were used: Z-Arg-Arg-AMC (final concentration 5 μM, Z-RR-AMC; Bachem, Bubendorf, Switzerland) for cathepsin B endopeptidase activity, Abz-Gly-Ile-Val-Arg-Ala-Lys-(Dnp)-OH (final concentration 1 μM, Abz-GIVRAK-(Dnp)-OH; Bachem) for cathepsin B exopeptidase activity, and Z-Phe-Arg-AMC (final concentration 2 μM, Z-FR-AMC; Bachem) for cathepsin V and L activity. The substrate ([…]) at a final concentration and inhibitor ([…]) at a concentration of 50 μM were added to the wells of a black microplate. The reaction was then initiated by adding 90 μL of activated enzyme (final concentrations: 5 nM cathepsin B for its endopeptidase activity, 0.5 nM cathepsin B for its exopeptidase activity, 2.5 ng/mL for cathepsin V, and 0.02 nM for cathepsin L) in the assay buffer. The formation of fluorescent degradation products during the reaction was continuously monitored at 460 ± 10 nm with excitation at 380 ± 20 nm for Z-Arg-Arg-AMC and Z-Phe-Arg-AMC and at 420 ± 10 nm with excitation at 320 ± 20 nm for Abz-Gly-Ile-Val-Arg-Ala-Lys(Dnp)-OH at 37 °C on a Tecan Infinite M1000 (Mannedorf, Switzerland) spectrofluorometer. All assay mixtures contained 5% (v/v) DMSO. To prevent false-positive inhibition due to the formation of compound aggregates, 0.01% Triton X-100 was used. All measurements were performed in triplicate and repeated twice. The relative inhibition was calculated using the following equation: relative inhibition (%) = 100(1 – v i/v o), where v i and v o designate the reaction velocities in the presence and absence of inhibitor, respectively.

[2] = target: T2, cathepsin B (exopeptidase activity) (Homo sapiens, UniProt P07858); experiment: Relative inhibition of cathepsin B exopeptidase activity; assay type: biochemical; settings: 50 μM; substrate Abz-Gly-Ile-Val-Arg-Ala-Lys-(Dnp)-OH; pH 5.0
T2 construct: made in house; host or cells: E. coli
Source text: as §1, §2, §3

[3] = target: T3, cathepsin L (Homo sapiens, UniProt P07711); experiment: Relative inhibition of cathepsin L; assay type: biochemical; settings: for relative inhibition cathepsin L: 50 μM, substrate Z-Phe-Arg-AMC, pH 5.5
T3 construct: made in house; host or cells: E. coli
Source text: as §1, §2, §3

[4] = target: T4, cathepsin V (Homo sapiens, UniProt O60911); experiment: Relative inhibition of cathepsin V; assay type: biochemical; settings: for relative inhibition cathepsin V: 50 μM, substrate Z-Phe-Arg-AMC, pH 5.5
T4 construct: made in house; host or cells: Pichia pastoris
Source text: as §1, §2, §3

[5] = test system: Colo205 cells; experiment: MTT cytotoxicity assay, Colo205; assay type: cell-based, human; settings: Homo sapiens, read-out: IC50 Colo205
Method: (§4) Its cytotoxicity was determined in the human HeLa cervical cancer cell line, the drug-sensitive Colo205 and its resistant counterpart, the ABCB1 expressing Colo320 colon adenocarcinoma cancer cell lines, using the colorimetric 3-(4,5-dimethylthiazol-2-yl)-2,5-diphenyltetrazolium bromide (MTT) test. To investigate the selectivity toward cancer cells, the noncancerous fibroblast CCD-19Lu cell line was included.
Drug-sensitive Colo205 (ATCC-CCL-222) and ABCB1 (MDR1)-LRP expressing and doxorubicin-resistant Colo320/MDR-LRP (ATCC-CCL-220.1) human colonic adenocarcinoma cell lines were purchased from LGC Promochem (Teddington, U.K.). The cells were cultured in RPMI 1640 medium supplemented with 10% heat-inactivated fetal bovine serum, 2 mM L-glutamine, 1 mM Na-pyruvate, and 10 mM HEPES.
(§5) The tested compound was dissolved in DMSO to prepare a 5 mM stock solution, which was diluted in complete culture medium, to study the effect of compounds on cell growth of human colonic adenocarcinoma cell lines. Doxorubicin was used as the positive control. The cells were treated with a trypsin-versene (EDTA) solution. Cells were adjusted to a density of 1 × 10^4 cells in 100 μL of the appropriate culture medium and were added to each well, with the exception of the medium control wells. Except for the semiadherent Colo205 and Colo320 cell lines, the other adherent cell lines were seeded 24 h prior to the assay. Then, stock solutions were diluted in the appropriate culture medium, and 2-fold serial dilutions of compounds were prepared in 100 μL of the medium, horizontally. The final volume of the wells containing compounds and cells was 200 μL. The plates were incubated at 37 °C for 72 h; at the end of the incubation period, 20 μL of MTT solution (from a stock solution of 5 mg/mL) was added to each well. […] Cell growth was determined by measuring the optical density (OD) at 540/630 nm with a Multiscan EX ELISA reader (Thermo Labsystems, Cheshire, WA). […]

[6] = test system: CCD-19Lu cells; experiment: MTT cytotoxicity assay, CCD-19Lu; assay type: cell-based, human; settings: Homo sapiens, CCD 19Lu, 72 h incubation, noncancerous fibroblast
Method: as §4
as §5, with “horizontally.” for “horizontally. The final volume of the wells containing compounds and cells was 200 μL. The plates were incubated at 37 °C for 72 h; at the end of the incubation period, 20 μL of MTT solution (from a stock solution of 5 mg/mL) was added to each well.”

[7] = target: T5, human serum albumin (HSA) (Homo sapiens, UniProt P02768); settings: reported value for similar complex; cited from earlier work
T5 construct: purchased Sigma-Aldrich/Merck A8763

[8] = test system: S. aureus ATCC 25923; design: method as in our previous work; settings: only on S. aureus strain; ref our previous work; cited from earlier work
[9] = test system: HSV-2; design: method as in our previous work; settings: ref our previous work; cited from earlier work
[10] = pH-dependent UV-vis spectrophotometry (solution speciation, pKa of aqua ligand); assay type: physicochemical
Source text: However, at pH > ∼8, the spectrum changes considerably (Figure ).
The isosbestic point indicates a single equilibrium process, which is most likely deprotonation of the coordinated aqua ligand in complex 4a. This process was studied in our previous work for similar fac-[Re(CO)3] complexes formed with (N,N)-bearing ligands, and the calculated pK a (H2O) is around 8. […] Similar pK a values in the presence and absence of the chloride ions indicate a low chloride affinity of the aqua complex. Based on these values, the fraction of [Re(CO)3(pth)(H2O)] is 100% at pH = 7.4. The analogous half-sandwich complex [Ru(cym)(pth)(H2O)]^+ was also characterized by high solution stability, and a similarly high pK a value (10.34 (0.2 M KCl)).
For the solution studies, an Agilent Cary 3500 spectrophotometer was utilized to obtain UV–vis spectra in the wavelength range of 200–1100 nm. The path length ( l ) was 1 cm in all cases. The concentrations of the complex were between 10 and 60 μM. For investigation of the effect of chloride ions, the samples contained 60 μM complex and 0–7300 equiv of Cl^–. For HSA-containing samples, complex concentrations were 60 μM, and 0.5 equiv of biomolecule (or 6 equiv of MIM) was added for kinetic studies, respectively. Individual samples contained 0–34 μM HSA. The computer program HypSpec was used to obtain equilibrium constants.

[11] = test system: S. aureus ATCC 25923; experiment: Antibacterial MIC assay, S. aureus ATCC 25923; assay type: cell-based, Staphylococcus aureus; settings: Staphylococcus aureus, ATCC25923; 18 h, visual inspection
Method: (§6) The antibacterial effect of the complex was tested against the Gram-negative strain Escherichia coli (E. coli) ATCC 25922, the Gram-positive reference strain Staphylococcus aureus (S. aureus) ATCC 25923, and the methicillin-resistant S. aureus MRSA ATCC 43300 strain. MRSA strains are responsible for several difficult-to-treat hospital-acquired infections.
(§7) The following bacterial strains were used in our experiments: Gram-positive S. aureus American Type Culture Collection (ATCC) 25923 as the methicillin-susceptible reference bacterial strain; methicillin-resistant S. aureus ATCC 43300 (MRSA) strain; E. coli ATCC 25922 as a Gram-negative bacterial strain.
(§8) MIC values of the complexes were determined in 96-well plates based on the Clinical and Laboratory Standard Institute guidelines (CLSI guidelines). The stock solutions of the compound (dissolved in DMSO at 5 mM concentration) were diluted in 100 μL of Mueller Hinton Broth. Then, 10^–4 dilution of an overnight bacterial culture in 100 μL of medium was added to each well, with the exception of the medium control wells.

[12] = test system: S. aureus MRSA ATCC 43300; experiment: Antibacterial MIC assay, S. aureus MRSA ATCC 43300; assay type: cell-based, Staphylococcus aureus; settings: Staphylococcus aureus, 18 h, read-out: MIC S. aureus MRSA ATCC 43300
Method: as §6, §7, §8

[13] = test system: E. coli ATCC 25922; experiment: Antibacterial MIC assay, E. coli ATCC 25922; assay type: cell-based, Escherichia coli; settings: Escherichia coli, ATCC25922, 18 h, read-out: MIC E. coli ATCC 25922
Method: as §6, §7, §8

T3 sequence (P07711 114-333): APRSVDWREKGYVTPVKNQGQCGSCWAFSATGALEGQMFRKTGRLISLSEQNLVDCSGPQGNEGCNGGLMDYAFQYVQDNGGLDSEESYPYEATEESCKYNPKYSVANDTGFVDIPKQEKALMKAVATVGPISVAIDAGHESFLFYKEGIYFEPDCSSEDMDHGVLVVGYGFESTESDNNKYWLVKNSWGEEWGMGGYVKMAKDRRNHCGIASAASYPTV
T4 sequence (O60911 114-334): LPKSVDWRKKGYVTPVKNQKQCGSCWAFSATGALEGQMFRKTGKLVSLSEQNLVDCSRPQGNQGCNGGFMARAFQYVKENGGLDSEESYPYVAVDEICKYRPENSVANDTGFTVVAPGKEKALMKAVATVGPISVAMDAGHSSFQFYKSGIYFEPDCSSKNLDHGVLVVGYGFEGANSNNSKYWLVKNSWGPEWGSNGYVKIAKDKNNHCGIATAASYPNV
T5 sequence (P02768 25-609): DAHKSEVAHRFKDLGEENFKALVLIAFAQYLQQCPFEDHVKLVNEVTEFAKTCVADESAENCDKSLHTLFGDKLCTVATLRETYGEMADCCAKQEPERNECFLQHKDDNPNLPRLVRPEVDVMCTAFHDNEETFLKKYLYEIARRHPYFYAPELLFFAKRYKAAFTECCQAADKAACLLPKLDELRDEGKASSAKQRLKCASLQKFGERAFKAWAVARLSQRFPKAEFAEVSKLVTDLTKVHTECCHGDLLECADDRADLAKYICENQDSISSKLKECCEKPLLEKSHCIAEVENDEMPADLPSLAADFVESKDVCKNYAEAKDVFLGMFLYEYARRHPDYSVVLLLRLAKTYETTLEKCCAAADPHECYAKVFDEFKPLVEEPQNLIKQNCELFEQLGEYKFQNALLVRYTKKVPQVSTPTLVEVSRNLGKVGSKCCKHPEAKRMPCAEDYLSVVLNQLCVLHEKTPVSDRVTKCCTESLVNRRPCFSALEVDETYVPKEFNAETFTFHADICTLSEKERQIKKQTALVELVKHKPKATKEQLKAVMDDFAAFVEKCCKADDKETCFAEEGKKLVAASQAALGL

For `[C-]#[O+].[C-]#[O+].[C-]#[O+].[C-]#[O+].[C-]#[O+].[Cl][Re]` [[Re(CO)5Cl], rhenium(I) pentacarbonyl chloride], the “relative inhibition cathepsin B endopeptidase” value [1] was 6.7 ± 0.7%, the “relative inhibition cathepsin B exopeptidase” value [2] was 12.2 ± 3.0% and the “relative inhibition cathepsin L” value [3] was 1.6 ± 6.5%. For the same molecule, the “relative inhibition cathepsin V” value [4] was 4.6 ± 0.3%.

In the case of zinc pyrithione, the “relative inhibition cathepsin B endopeptidase” value [1] is reported as 8.7 ± 2.2%, the “relative inhibition cathepsin B exopeptidase” value [2] is reported as 11.1 ± 2.2% and the “relative inhibition cathepsin L” value [3] is reported as 1.3 ± 2.4%. The “relative inhibition cathepsin V” value [4] was 1.9 ± 3.0%.

Work on `COc1cccc2c1C(=O)c1c(O)c3c(c(O)c1C2=O)C[C@@](O)(C(=O)CO)C[C@@H]3O[C@H]1C[C@H](N)[C@H](O)[C@H](C)O1` [doxorubicin, reference compound] yielded an IC50 ([5]; COLO 205, 72 h incubation, MTT) of 584 ± 55 nM and an IC50 [6] of 244 ± 26 nM.

With `[O-][n+]1ccccc1S` [pthH, Pyrithione] the inhibition at 50 µM ([1]; pH 6, read-out: relative inhibition cathepsin B endopeptidase) was 4.3 ± 2.3%, the “relative inhibition cathepsin B exopeptidase” value [2] was “n.i. ^a” and the inhibition at 50 µM ([3]; pH 5.5, read-out: relative inhibition cathepsin L) was 0.5 ± 1.9%. It also gave an inhibition at 50 µM ([4]; pH 5.5, read-out: relative inhibition cathepsin V) of 2.3 ± 3.2%.

In the case of `Cc1ccc(C(C)C)cc1.[Cl-].[O-][n+]1ccccc1[S-].[Ru+2]` [[Ru(cym)(pth)Cl], [ruthenium(η^6-p-cymene)(pyrithionato)(chlorido)]], the “relative inhibition cathepsin B endopeptidase” value [1] is reported as 9.4 ± 1.8%, the “relative inhibition cathepsin B exopeptidase” value [2] is reported as 5.4 ± 7.2% and the “relative inhibition cathepsin L” value [3] is reported as 1.5 ± 1.5%. The “relative inhibition cathepsin V” value [4] was 1.7 ± 5.7%, the “log KQ quenching constant” value [7] was 5.81 and the “MIC S. aureus strain” value [8] was 50 µM. For the same molecule, the “inhibition of growth of the HSV-2 virus” value [9] was “did not inhibit the growth of the HSV-2 virus”.

In the case of [Re(CO)3(pth)(H2O)] [complex 4a], the “pKa (deprotonation of coordinated aqua ligand)” value ([10]; 0.1 M KCl, 25.0 °C) is reported as 10.27 ± 0.01, the “pKa (deprotonation of coordinated aqua ligand)” value ([10]; 0.1 M KNO3) is reported as 10.15 ± 0.01 and the “fraction of aqua complex” value ([10]; pH = 7.4, based on the pKa values) is reported as 100%.

For `N#Cc1ccccc1` [benzonitrile, reference compound], the IC50 ([5]; COLO 205, 72 h) was > 100000 nM, the MIC [11] was > 100 µM and the MIC [12] was > 100 µM. The MIC [13] was > 100 µM.
